Source: ChEMBL document CHEMBL1955734, “JFCR39, a panel of 39 human cancer cell lines, and its application in the discovery and development of anticancer drugs” (Bioorg Med Chem, 2012)

What was measured:
[1] = target: Telomerase reverse transcriptase (Homo sapiens, UniProt O14746); assay: Inhibition of telomerase
[2] = system: HT-29; assay: Growth inhibition of human HT-29 cells; assay type: functional, cell-based
[3] = Growth inhibition of human NCI-H483 cells; assay type: functional, cell-based
[4] = system: SK-OV-3; assay: Growth inhibition of human SKOV3 cells; assay type: functional, cell-based
[5] = Growth inhibition of human HBC4 cells; assay type: functional, cell-based
[6] = system: SF-539; assay: Growth inhibition of human SF539 cells; assay type: functional, cell-based
[7] = system: OVCAR-4; assay: Growth inhibition of human OVCAR4 cells; assay type: functional, cell-based
[8] = system: HCC 2998; assay: Growth inhibition of human HCC2998 cells; assay type: functional, cell-based
[9] = Growth inhibition of human BSY1 cells; assay type: functional, cell-based; details: BSY-1
[10] = system: OVCAR-3; assay: Growth inhibition of human OVCAR3 cells; assay type: functional, cell-based
[11] = system: KM12; assay: Growth inhibition of human KM12 cells; assay type: functional, cell-based
[12] = system: NCI-H23; assay: Growth inhibition of human NCI-H23 cells; assay type: functional, cell-based
[13] = system: MKN-74; assay: Growth inhibition of human MKN74 cells; assay type: functional, cell-based
[14] = system: St-4; assay: Growth inhibition of human St-4 cells; assay type: functional, cell-based
[15] = Growth inhibition of human RXF631L cells; assay type: functional; details: RXF 631
[16] = system: DMS-114; assay: Growth inhibition of human DMS114 cells; assay type: functional, cell-based
[17] = system: MDA-MB-231; assay: Growth inhibition of human MDA-MB-231 cells; assay type: functional, cell-based
[18] = system: NCI-H226; assay: Growth inhibition of human NCI-H226 cells; assay type: functional, cell-based
[19] = system: MKN-7; assay: Growth inhibition of human MKN7 cells; assay type: functional, cell-based
[20] = system: OVCAR-8; assay: Growth inhibition of human OVCAR8 cells; assay type: functional, cell-based
[21] = system: SF-295; assay: Growth inhibition of human SF295 cells; assay type: functional, cell-based
[22] = system: DU-145; assay: Growth inhibition of human DU145 cells; assay type: functional, cell-based
[23] = system: DMS-273; assay: Growth inhibition of human DMS273 cells; assay type: functional, cell-based
[24] = system: SNB-75; assay: Growth inhibition of human SNB75 cells; assay type: functional, cell-based
[25] = system: NCI-H522; assay: Growth inhibition of human NCI-H522 cells; assay type: functional, cell-based
[26] = system: MCF7; assay: Growth inhibition of human MCF7 cells; assay type: functional, cell-based
[27] = system: MKN-28; assay: Growth inhibition of human MKN28 cells; assay type: functional, cell-based
[28] = Growth inhibition of human HBC5 cells; assay type: functional, cell-based
[29] = system: SNB-78; assay: Growth inhibition of human SNB78 cells; assay type: functional, cell-based
[30] = system: HCT-116; assay: Growth inhibition of human HCT116 cells; assay type: functional, cell-based
[31] = Growth inhibition of human MKN1 cells; assay type: functional, cell-based; details: MKN-1
[32] = system: PC-3; assay: Growth inhibition of human PC3 cells; assay type: functional, cell-based
[33] = system: LOX IMVI; assay: Growth inhibition of human LOXIMVI cells; assay type: functional, cell-based
[34] = system: SF-268; assay: Growth inhibition of human SF268 cells; assay type: functional, cell-based
[35] = system: A549; assay: Growth inhibition of human A549 cells; assay type: functional, cell-based
[36] = system: U-251; assay: Growth inhibition of human U251 cells; assay type: functional, cell-based
[37] = system: MKN-45; assay: Growth inhibition of human MKN45 cells; assay type: functional, cell-based
[38] = system: ACHN; assay: Growth inhibition of human ACHN cells; assay type: functional, cell-based
[39] = system: HCT-15; assay: Growth inhibition of human HCT15 cells; assay type: functional, cell-based
[40] = system: OVCAR-5; assay: Growth inhibition of human OVCAR5 cells; assay type: functional, cell-based

Telomerase reverse transcriptase, sequence (O14746 whole entry): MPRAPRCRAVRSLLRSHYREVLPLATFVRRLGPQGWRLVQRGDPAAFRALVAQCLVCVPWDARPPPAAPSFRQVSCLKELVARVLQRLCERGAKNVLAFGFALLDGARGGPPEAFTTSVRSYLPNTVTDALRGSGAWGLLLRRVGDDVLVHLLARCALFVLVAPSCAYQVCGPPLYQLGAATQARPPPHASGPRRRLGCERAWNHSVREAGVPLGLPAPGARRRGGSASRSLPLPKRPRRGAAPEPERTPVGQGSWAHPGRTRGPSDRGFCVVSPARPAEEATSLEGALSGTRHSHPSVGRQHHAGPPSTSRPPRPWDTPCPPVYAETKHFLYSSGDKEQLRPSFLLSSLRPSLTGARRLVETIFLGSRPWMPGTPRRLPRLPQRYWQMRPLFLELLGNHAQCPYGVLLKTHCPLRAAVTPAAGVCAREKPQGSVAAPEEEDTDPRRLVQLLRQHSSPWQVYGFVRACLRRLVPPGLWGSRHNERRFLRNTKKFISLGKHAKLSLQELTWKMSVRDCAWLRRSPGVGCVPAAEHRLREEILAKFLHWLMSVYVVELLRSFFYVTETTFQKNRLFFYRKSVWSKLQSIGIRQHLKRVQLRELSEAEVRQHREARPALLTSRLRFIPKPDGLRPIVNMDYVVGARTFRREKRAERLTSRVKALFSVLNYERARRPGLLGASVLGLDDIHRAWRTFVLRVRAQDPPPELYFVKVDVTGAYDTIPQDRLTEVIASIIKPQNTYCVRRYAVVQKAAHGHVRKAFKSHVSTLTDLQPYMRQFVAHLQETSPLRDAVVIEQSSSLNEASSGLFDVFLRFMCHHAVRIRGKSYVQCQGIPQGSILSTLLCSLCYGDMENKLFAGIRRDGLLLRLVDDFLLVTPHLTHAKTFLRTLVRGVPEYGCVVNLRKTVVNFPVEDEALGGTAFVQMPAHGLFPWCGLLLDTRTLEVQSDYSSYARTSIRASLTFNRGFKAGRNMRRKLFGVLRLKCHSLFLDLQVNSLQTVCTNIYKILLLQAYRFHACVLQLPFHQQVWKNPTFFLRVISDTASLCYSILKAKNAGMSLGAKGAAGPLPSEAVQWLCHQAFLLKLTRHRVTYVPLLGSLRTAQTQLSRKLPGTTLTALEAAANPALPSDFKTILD

CCn1c(=O)/c(=C2\Sc3ccccc3N2C)s/c1=C\c1scc(C)[n+]1CC
IC50 [1]: 2 µM

Cn1cc(NC(=O)CC[S+](C)C)cc1-c1nc2cc(C(=O)Nc3ccc(N(CCCl)CCCl)cc3)ccc2[nH]1
IC50 [2]: 0.71 µM | IC50 [3]: 0.71 µM | IC50 [4]: 0.71 µM | IC50 [5]: 0.71 µM | IC50 [6]: 0.71 µM | IC50 [7]: 0.71 µM | IC50 [8]: 0.71 µM | IC50 [9]: 0.71 µM | IC50 [10]: 0.71 µM | IC50 [11]: 0.71 µM | IC50 [12]: 0.71 µM | IC50 [13]: 0.71 µM | IC50 [14]: 0.71 µM | IC50 [15]: 0.71 µM | IC50 [16]: 0.71 µM | IC50 [17]: 0.71 µM | IC50 [18]: 0.71 µM | IC50 [19]: 0.71 µM | IC50 [20]: 0.71 µM | IC50 [21]: 0.71 µM | IC50 [22]: 0.71 µM | IC50 [23]: 0.71 µM | IC50 [24]: 0.71 µM | IC50 [25]: 0.71 µM | IC50 [26]: 0.71 µM | IC50 [27]: 0.71 µM | IC50 [28]: 0.71 µM | IC50 [29]: 0.71 µM | IC50 [30]: 0.71 µM | IC50 [31]: 0.71 µM | IC50 [32]: 0.71 µM | IC50 [33]: 0.71 µM | IC50 [34]: 0.71 µM | IC50 [35]: 0.71 µM | IC50 [36]: 0.71 µM | IC50 [37]: 0.71 µM | IC50 [38]: 0.71 µM | IC50 [39]: 0.71 µM | IC50 [40]: 0.71 µM

CCn1c(=O)/c(=C2\Sc3ccccc3N2C)s/c1=C\c1cccc[n+]1CC
IC50 [1]: 5 µM

COc1ccc2cc3[n+](cc2c1OC)CCc1cc2c(cc1-3)OCO2 [BERBERINE]
IC50 [1]: 37 µM

Cn1c(=O)n(-c2ccc(C(C)(C)C#N)cc2)c2c3cc(-c4cnc5ccccc5c4)ccc3ncc21 [DACTOLISIB]
GI50 [2]: 0.0178 µM | GI50 [3]: 0.00776 µM | GI50 [4]: 0.00389 µM | GI50 [5]: 0.00246 µM | GI50 [6]: 0.00257 µM | GI50 [7]: 0.00263 µM | GI50 [8]: 0.00891 µM | GI50 [9]: 0.00331 µM | GI50 [10]: 0.00676 µM | GI50 [11]: 0.0288 µM | GI50 [12]: 0.0229 µM | GI50 [13]: 0.038 µM | GI50 [14]: 0.0339 µM | GI50 [15]: 0.00617 µM | GI50 [16]: 0.00407 µM | GI50 [17]: 0.00813 µM | GI50 [18]: 0.00363 µM | GI50 [19]: 0.0209 µM | GI50 [20]: 0.0144 µM | GI50 [21]: 0.0049 µM | GI50 [22]: 0.00692 µM | GI50 [23]: 0.0158 µM | GI50 [24]: 0.00263 µM | GI50 [25]: 0.00355 µM | GI50 [26]: 0.00692 µM | GI50 [27]: 0.0851 µM | GI50 [28]: 0.0135 µM | GI50 [29]: 0.00224 µM | GI50 [30]: 0.0246 µM | GI50 [31]: 0.00389 µM | GI50 [32]: 0.00219 µM | GI50 [33]: 0.00219 µM | GI50 [34]: 0.012 µM | GI50 [35]: 0.00851 µM | GI50 [36]: 0.0219 µM | GI50 [37]: 0.00457 µM | GI50 [38]: 0.0112 µM | GI50 [39]: 0.00933 µM | GI50 [40]: 0.0269 µM

CS(=O)(=O)N1CCN(Cc2cc3nc(-c4cccc5[nH]ncc45)nc(N4CCOCC4)c3s2)CC1 [PICTILISIB]
GI50 [2]: 0.501 µM | GI50 [3]: 0.275 µM | GI50 [4]: 0.302 µM | GI50 [5]: 0.933 µM | GI50 [6]: 0.316 µM | GI50 [7]: 1.74 µM | GI50 [8]: 0.513 µM | GI50 [9]: 0.126 µM | GI50 [10]: 0.195 µM | GI50 [11]: 1.74 µM | GI50 [12]: 1.86 µM | GI50 [13]: 0.955 µM | GI50 [14]: 2.75 µM | GI50 [15]: 0.132 µM | GI50 [16]: 1.2 µM | GI50 [17]: 3.47 µM | GI50 [18]: 0.617 µM | GI50 [19]: 0.316 µM | GI50 [20]: 1.86 µM | GI50 [21]: 0.427 µM | GI50 [22]: 1.41 µM | GI50 [23]: 0.372 µM | GI50 [24]: 0.0794 µM | GI50 [25]: 0.263 µM | GI50 [26]: 0.0468 µM | GI50 [27]: 3.02 µM | GI50 [28]: 0.251 µM | GI50 [29]: 0.302 µM | GI50 [30]: 1.35 µM | GI50 [31]: 0.0832 µM | GI50 [32]: 0.219 µM | GI50 [33]: 0.513 µM | GI50 [34]: 4.07 µM | GI50 [35]: 0.708 µM | GI50 [36]: 3.16 µM | GI50 [37]: 0.282 µM | GI50 [38]: 0.851 µM | GI50 [39]: 0.759 µM | GI50 [40]: 0.55 µM

FC(F)c1nc2ccccc2n1-c1nc(N2CCOCC2)nc(N2CCOCC2)n1 [ZSTK-474]
GI50 [2]: 0.646 µM | GI50 [3]: 0.372 µM | GI50 [4]: 0.398 µM | GI50 [5]: 0.912 µM | GI50 [6]: 0.479 µM | GI50 [7]: 1.62 µM | GI50 [8]: 0.851 µM | GI50 [9]: 0.275 µM | GI50 [10]: 0.389 µM | GI50 [11]: 2.24 µM | GI50 [12]: 1.05 µM | GI50 [13]: 1.02 µM | GI50 [14]: 1.91 µM | GI50 [15]: 0.316 µM | GI50 [16]: 0.479 µM | GI50 [17]: 0.813 µM | GI50 [18]: 0.407 µM | GI50 [19]: 0.575 µM | GI50 [20]: 1.26 µM | GI50 [21]: 0.347 µM | GI50 [22]: 0.724 µM | GI50 [23]: 0.339 µM | GI50 [24]: 0.155 µM | GI50 [25]: 0.263 µM | GI50 [26]: 0.182 µM | GI50 [27]: 1.95 µM | GI50 [28]: 0.17 µM | GI50 [29]: 0.355 µM | GI50 [30]: 1.38 µM | GI50 [31]: 0.245 µM | GI50 [32]: 0.145 µM | GI50 [33]: 0.288 µM | GI50 [34]: 1.48 µM | GI50 [35]: 0.676 µM | GI50 [36]: 1.82 µM | GI50 [37]: 0.245 µM | GI50 [38]: 0.603 µM | GI50 [39]: 0.525 µM | GI50 [40]: 1.2 µM
